In ChEMBL document CHEMBL1201862, “PubChem BioAssay data set” (2004) one finds EC50, AC50 and IC50 data, which are given here for seven molecules.

For assay [1], the system named is HEK293. Nature of the assay: cells. Particulars: Homo sapiens.
The test system of assay [2] is HEK293. Nature of the assay: cells. Particulars: Homo sapiens. This is another data set of the same source.
Assay [3] in a line: Luminescence Cell-Based Dose Response Follow up to Identify Inhibitors of Platelet Dense Granule Release. [Related pubchem assays (depositor defined):AID1663, AID1678, AID1889, AID2519]. Format: functional.
The nature of assay [4]: cells. The class given is functional, cell-based.
Assay [5] is described as follows: cells. Format: functional, cell-based. This is another data set of the same source.
The nature of assay [6]: Luminescence Cell-Based Dose Retest to Confirm Inhibitors of Cancer Stem Cells. [Related pubchem assays (depositor defined):AID2717, AID2721]. Format: functional. As to conditions: Homo sapiens.
Assay [7] deals with T1, Heat shock factor protein 1 (Mus musculus, UniProt P38532).
T1 sequence (P38532 whole entry): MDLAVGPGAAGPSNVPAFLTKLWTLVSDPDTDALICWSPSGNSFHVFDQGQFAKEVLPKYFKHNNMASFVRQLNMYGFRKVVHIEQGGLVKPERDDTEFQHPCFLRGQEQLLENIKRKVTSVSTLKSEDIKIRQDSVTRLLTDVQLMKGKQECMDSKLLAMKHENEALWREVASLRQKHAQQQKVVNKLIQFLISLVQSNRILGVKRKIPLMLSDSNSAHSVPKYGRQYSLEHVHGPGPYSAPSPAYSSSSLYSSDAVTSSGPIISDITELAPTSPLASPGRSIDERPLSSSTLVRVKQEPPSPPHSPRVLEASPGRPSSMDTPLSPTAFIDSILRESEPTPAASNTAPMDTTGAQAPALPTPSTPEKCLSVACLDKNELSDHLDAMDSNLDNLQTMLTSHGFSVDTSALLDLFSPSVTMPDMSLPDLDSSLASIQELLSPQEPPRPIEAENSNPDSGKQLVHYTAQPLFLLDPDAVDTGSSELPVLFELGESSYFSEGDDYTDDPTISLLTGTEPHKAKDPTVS
Put plainly: HSF1 potentiators in luciferase reporter cells, confirmation, cell-based, NIH3T3, luminescence, dose retest (AID 435004).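 Further: stress induced by proteasome inhibitor MG132 added 30 min after compound; luciferase reporter driven by HSF1 response element in NIH3T3 cells; actives raise luminescence as potentiators of the MG132 stress response.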 The class given is functional. On the technique in general: In a reporter assay the amount or activity of a reporter protein is the signal.

The target in assay [8] is T2, Hexokinase HKDC1 (Homo sapiens, UniProt Q2TB90).
T2 sequence (Q2TB90 whole entry): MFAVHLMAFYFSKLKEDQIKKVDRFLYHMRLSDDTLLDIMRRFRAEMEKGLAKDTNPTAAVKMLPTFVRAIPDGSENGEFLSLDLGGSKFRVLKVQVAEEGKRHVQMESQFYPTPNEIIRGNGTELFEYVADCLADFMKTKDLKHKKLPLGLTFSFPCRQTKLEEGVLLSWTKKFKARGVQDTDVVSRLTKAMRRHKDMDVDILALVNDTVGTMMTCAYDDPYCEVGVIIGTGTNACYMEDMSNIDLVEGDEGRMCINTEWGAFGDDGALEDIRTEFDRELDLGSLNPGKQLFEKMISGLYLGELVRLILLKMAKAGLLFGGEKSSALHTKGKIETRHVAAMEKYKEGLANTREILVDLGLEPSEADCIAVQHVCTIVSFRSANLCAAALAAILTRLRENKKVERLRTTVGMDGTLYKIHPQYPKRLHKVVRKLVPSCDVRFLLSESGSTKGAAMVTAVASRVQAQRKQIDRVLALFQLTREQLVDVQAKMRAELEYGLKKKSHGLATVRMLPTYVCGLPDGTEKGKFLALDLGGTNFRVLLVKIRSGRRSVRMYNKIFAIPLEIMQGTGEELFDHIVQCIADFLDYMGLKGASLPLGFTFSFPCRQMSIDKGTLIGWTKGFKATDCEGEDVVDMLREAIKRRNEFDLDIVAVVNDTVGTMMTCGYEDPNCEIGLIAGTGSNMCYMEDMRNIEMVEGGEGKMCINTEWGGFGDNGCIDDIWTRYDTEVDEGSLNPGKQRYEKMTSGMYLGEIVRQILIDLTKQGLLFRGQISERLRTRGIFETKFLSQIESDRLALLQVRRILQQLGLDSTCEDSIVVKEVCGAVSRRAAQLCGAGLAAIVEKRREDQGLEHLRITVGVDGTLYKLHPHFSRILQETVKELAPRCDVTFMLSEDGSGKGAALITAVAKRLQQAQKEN
Nature of the assay: HKDC1 hexokinase inhibitors, dose response, biochemical, W721R variant (AID 504729). Format: functional.

Assay [9] has as its target Lysine-specific demethylase 4A (Homo sapiens, UniProt O75164). Put plainly: JMJD2A histone demethylase inhibitors, dose response, selectivity assay for GASC-1 inhibitor project, biochemical, DELFIA europium, cherry-picked samples (AID 488840).
Assay [10] has as its target Lysine-specific demethylase 4C (Homo sapiens, UniProt Q9H3R0). Nature of the assay: GASC-1 (JMJD2C) histone demethylase inhibitors, dose response, biochemical, DELFIA europium, cherry-picked samples (AID 488835). Format: functional.
Assay [11] deals with INS1. Nature of the assay: beta cell apoptosis inhibitors, cytokine rescue, dose response, luminescence, retest (AID 449756).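 Further: cell death triggered by IL-1 beta plus TNF-alpha plus IFN-gamma mixture; protective hits raise ATP signal compared with cytokine alone wells.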 Format: functional, cell-based. As to conditions: Rattus norvegicus.
In assay [12] the test system is Candida albicans. Put plainly: reversal of fluconazole resistance in C. albicans, dose response, CaCi-2 strain, Alamar Blue, dry powder, set 3 (AID 488907). Format: functional, organism-based. In general terms: The colour change of resazurin is a common sign of viable cells or microbes.
In assay [13] the target is Trypsin (Sus scrofa, UniProt P00761). Nature of the assay: porcine trypsin inhibitors, dose response, selectivity assay for Rce1 protease inhibitor project, biochemical, quenched peptide fluorescence, cherry-pick (AID 488789).
Chain of Trypsin (P00761 whole entry): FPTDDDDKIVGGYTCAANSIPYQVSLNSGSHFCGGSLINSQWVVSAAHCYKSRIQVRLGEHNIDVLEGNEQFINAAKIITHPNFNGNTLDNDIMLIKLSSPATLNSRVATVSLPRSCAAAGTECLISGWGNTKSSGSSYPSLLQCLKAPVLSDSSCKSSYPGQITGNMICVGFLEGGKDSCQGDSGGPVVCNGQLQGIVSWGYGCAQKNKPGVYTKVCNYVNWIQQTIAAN
Assay [14] concerns the target CAAX prenyl protease 1 (Saccharomyces cerevisiae S288c, UniProt P47154). Put plainly: Ste24 protease inhibitors, dose response, biochemical, S. cerevisiae, plate reader, cherry-pick (AID 488815).
Assay [15] has as its target T3, CAAX prenyl protease 2 (Homo sapiens, UniProt Q9Y256).
T3 sequence (Q9Y256 whole entry): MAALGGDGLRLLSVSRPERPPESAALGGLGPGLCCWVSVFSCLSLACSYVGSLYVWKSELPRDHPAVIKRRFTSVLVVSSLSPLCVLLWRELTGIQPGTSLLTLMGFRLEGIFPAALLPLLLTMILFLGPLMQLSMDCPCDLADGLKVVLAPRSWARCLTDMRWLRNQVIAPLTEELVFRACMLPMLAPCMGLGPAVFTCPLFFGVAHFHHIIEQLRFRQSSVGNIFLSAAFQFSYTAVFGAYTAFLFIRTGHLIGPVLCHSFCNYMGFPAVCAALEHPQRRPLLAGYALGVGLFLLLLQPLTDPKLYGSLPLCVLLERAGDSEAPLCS
Nature of the assay: human Rce1 protease inhibitors, dose response, biochemical, yeast membranes, quenched-peptide fluorescence, cherry-pick (AID 588849).

Assay [16] deals with Intestinal-type alkaline phosphatase (Mus musculus, UniProt P24822). Nature of the assay: PubChem AID 488875. The class given is functional.
Chain of Intestinal-type alkaline phosphatase (Mus musculus, UniProt P24822) (P24822 whole entry): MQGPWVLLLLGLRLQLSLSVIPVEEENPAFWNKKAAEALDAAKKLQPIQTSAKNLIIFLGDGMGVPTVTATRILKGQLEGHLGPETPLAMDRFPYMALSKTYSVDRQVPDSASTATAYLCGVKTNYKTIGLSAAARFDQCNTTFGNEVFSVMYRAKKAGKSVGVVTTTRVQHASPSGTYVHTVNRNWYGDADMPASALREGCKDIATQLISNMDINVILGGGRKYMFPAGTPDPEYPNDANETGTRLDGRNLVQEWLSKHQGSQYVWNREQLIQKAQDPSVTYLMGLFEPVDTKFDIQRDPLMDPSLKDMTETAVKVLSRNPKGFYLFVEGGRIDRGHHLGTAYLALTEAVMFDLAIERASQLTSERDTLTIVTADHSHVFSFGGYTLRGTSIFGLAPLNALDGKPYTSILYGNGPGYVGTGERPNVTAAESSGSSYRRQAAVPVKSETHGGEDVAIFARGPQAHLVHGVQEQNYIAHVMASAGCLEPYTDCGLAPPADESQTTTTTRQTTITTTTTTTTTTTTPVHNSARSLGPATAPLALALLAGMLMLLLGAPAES
Assay [17] addresses T4, Intestinal-type alkaline phosphatase (Homo sapiens, UniProt P09923). Put plainly: human intestinal alkaline phosphatase activators, dose response, biochemical, luminescence, uHTS hits (AID 463120). Format: functional.
Assay [18] addresses T4, Intestinal-type alkaline phosphatase. Nature of the assay: human IAP activators, dose response, biochemical, luminescent, uHTS hits, set 2 (AID 488817).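 Further: potency of activators that raise enzyme activity.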 Format: functional.
Assay [19] concerns the target T5, Alkaline phosphatase, tissue-nonspecific isozyme (Homo sapiens, UniProt P05186).
T5 sequence (P05186 whole entry): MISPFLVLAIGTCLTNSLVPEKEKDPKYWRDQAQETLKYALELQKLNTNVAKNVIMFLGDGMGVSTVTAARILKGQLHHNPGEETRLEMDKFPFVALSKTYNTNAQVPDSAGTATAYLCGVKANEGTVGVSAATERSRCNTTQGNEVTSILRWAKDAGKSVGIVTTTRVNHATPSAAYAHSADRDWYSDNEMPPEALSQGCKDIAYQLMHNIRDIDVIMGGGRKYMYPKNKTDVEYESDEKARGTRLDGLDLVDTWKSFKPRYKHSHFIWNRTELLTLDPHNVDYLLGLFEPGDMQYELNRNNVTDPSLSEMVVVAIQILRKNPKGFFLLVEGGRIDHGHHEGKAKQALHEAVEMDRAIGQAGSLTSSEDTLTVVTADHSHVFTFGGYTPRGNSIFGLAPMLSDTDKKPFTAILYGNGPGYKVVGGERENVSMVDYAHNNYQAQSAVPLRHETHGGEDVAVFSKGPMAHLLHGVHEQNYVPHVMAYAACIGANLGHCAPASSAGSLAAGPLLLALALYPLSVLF
Nature of the assay: TNAP enzyme activators, dose response, selectivity assay for human IAP activator project, biochemical, TNAP isozyme, human IAP uHTS hits (AID 488886).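 Further: potency of compounds raising TNAP activity as a selectivity check on IAP activators.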 Format: functional.

Assay [20] has as its target T6, Voltage-gated N-type calcium channel alpha-1B subunit/Amyloid beta A4 precursor protein-binding family A member 1 (Homo sapiens, UniProt Q00975+Q02410). Format: protein assay.
The target in assay [21] is T6, Voltage-gated N-type calcium channel alpha-1B subunit/Amyloid beta A4 precursor protein-binding family A member 1. Format: protein assay. The source holds these as a separate data set.
The target of assay [22] is T7, Apoptotic protease-activating factor 1 (Homo sapiens, UniProt O14727).
T7 sequence (O14727 whole entry): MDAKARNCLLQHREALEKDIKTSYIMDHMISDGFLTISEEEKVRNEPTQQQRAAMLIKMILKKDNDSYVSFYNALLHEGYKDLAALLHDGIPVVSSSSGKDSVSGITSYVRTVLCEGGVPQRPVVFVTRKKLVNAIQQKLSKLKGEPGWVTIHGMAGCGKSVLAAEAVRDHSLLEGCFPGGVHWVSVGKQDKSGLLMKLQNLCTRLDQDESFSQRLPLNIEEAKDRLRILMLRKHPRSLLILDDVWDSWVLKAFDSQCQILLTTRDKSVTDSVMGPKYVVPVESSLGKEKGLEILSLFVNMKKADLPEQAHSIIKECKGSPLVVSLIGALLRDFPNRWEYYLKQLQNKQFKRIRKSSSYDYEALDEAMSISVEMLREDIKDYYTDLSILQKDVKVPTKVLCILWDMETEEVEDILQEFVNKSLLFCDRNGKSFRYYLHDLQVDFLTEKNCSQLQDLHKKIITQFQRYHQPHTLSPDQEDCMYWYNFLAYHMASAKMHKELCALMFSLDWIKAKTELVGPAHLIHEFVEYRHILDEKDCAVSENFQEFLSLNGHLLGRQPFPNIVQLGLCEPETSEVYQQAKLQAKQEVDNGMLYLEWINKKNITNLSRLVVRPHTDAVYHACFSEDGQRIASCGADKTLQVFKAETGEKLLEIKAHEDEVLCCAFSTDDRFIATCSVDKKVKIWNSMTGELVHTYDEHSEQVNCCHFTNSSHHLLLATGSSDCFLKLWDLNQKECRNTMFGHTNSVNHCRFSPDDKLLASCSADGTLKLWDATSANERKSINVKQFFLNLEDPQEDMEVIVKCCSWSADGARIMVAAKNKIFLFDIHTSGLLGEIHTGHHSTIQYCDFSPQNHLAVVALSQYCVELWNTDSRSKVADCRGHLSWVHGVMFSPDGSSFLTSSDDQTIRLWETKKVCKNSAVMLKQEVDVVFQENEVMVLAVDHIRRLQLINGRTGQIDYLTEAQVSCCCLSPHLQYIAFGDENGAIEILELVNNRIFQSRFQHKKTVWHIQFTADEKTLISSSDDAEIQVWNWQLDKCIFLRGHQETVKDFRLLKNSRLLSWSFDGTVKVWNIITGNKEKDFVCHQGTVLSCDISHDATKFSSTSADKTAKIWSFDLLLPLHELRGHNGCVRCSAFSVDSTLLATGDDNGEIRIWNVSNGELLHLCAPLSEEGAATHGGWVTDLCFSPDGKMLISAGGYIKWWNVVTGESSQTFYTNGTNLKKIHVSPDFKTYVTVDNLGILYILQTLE
Nature of the assay: activation of Apaf-1 mediated apoptosis – fluorescent, uHTS hits, dose response (AID 588554). Format: functional.

Molecules are shown by their SMILES. Activity calls are given as the source filed them.

T6 sequence (Q00975 whole entry): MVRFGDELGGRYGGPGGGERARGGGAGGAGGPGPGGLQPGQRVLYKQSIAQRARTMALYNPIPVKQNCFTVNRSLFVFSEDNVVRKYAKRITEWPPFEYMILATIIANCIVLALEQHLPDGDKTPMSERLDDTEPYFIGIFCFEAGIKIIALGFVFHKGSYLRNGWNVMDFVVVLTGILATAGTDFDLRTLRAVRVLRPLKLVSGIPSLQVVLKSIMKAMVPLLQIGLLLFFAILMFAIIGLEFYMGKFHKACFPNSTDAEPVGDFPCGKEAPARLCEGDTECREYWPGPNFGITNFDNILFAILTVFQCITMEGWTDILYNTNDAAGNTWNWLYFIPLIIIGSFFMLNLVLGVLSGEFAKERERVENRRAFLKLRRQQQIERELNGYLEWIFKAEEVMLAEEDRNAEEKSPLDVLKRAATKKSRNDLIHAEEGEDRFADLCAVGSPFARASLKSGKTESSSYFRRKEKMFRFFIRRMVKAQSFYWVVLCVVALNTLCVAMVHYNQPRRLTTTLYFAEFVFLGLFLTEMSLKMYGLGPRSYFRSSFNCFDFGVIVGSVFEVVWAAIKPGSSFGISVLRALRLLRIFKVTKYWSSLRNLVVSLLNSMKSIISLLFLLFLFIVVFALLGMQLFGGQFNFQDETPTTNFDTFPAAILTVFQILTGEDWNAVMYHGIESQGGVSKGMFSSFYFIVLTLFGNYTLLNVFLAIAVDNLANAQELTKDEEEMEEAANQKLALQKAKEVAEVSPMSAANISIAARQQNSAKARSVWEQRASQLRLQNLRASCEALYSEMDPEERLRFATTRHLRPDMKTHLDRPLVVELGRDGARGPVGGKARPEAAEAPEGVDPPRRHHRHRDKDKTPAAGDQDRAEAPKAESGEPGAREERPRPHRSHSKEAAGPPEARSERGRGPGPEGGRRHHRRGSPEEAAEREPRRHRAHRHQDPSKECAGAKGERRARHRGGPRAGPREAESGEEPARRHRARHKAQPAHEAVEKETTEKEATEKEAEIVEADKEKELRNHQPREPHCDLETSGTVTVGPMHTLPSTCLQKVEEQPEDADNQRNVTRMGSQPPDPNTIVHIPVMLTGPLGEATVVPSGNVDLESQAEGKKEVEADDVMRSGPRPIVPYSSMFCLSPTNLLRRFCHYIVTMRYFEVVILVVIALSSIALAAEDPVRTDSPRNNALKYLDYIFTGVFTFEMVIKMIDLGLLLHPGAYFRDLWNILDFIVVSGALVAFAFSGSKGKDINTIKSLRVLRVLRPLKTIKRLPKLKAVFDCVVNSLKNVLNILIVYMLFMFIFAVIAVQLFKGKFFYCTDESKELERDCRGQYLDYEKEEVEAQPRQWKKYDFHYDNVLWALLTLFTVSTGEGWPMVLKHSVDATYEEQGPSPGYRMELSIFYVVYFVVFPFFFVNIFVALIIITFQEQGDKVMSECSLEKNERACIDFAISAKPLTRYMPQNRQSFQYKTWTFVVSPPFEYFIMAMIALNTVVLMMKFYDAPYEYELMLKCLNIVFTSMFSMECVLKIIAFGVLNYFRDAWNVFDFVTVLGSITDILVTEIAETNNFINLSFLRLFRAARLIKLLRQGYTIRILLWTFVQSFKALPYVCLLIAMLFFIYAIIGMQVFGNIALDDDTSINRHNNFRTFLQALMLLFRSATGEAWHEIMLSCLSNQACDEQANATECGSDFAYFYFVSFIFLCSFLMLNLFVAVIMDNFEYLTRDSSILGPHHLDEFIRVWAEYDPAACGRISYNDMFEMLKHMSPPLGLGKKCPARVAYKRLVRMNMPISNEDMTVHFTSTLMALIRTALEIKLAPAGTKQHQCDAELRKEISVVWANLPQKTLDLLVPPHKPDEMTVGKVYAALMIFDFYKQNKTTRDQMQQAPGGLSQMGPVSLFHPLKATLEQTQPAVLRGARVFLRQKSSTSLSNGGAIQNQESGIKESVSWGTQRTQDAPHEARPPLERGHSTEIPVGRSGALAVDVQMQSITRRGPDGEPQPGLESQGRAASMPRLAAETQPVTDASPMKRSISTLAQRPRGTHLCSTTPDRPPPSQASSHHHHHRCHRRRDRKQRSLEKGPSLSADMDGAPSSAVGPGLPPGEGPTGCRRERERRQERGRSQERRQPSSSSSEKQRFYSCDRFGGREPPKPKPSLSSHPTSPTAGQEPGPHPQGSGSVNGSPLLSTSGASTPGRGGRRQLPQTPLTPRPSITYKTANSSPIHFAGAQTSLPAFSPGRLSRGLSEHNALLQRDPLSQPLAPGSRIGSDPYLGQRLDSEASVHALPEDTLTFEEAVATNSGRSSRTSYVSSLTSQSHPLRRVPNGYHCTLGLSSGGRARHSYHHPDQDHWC
T6 sequence (Q02410 whole entry): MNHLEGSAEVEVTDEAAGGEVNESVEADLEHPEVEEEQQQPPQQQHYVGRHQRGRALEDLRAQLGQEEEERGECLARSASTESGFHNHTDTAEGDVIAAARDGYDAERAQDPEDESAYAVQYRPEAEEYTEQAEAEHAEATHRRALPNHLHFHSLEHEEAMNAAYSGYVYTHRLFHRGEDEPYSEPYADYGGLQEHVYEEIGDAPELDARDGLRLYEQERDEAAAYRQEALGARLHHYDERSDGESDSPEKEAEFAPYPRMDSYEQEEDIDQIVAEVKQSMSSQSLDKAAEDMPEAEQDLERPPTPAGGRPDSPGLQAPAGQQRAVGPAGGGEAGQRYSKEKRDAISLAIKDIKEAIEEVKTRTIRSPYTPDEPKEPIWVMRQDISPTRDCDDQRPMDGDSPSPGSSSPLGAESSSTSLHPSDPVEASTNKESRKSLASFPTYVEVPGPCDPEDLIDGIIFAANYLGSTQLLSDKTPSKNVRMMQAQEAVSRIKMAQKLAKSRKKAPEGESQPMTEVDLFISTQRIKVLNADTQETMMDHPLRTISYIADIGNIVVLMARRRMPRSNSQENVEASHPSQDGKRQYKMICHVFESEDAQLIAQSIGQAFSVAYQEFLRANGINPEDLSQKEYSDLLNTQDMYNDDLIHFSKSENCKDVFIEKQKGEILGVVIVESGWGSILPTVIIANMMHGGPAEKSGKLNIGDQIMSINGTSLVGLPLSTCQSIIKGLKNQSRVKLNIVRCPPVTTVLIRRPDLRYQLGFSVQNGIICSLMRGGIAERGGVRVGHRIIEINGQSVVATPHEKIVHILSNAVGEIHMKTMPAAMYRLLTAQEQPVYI
T4 sequence (P09923 whole entry): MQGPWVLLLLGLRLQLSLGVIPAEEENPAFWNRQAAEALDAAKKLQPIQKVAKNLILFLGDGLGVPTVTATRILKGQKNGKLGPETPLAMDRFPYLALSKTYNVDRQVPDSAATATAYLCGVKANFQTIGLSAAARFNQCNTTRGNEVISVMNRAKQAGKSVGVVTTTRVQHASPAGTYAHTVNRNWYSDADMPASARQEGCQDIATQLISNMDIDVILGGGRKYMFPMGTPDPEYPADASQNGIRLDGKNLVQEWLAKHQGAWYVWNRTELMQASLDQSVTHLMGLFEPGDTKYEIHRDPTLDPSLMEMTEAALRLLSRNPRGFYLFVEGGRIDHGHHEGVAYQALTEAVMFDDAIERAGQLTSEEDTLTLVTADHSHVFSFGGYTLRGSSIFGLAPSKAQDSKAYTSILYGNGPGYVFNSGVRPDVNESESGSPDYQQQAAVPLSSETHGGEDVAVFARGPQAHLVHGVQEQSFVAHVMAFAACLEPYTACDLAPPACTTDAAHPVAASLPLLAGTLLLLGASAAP
Chain of CAAX prenyl protease 1 (P47154 whole entry): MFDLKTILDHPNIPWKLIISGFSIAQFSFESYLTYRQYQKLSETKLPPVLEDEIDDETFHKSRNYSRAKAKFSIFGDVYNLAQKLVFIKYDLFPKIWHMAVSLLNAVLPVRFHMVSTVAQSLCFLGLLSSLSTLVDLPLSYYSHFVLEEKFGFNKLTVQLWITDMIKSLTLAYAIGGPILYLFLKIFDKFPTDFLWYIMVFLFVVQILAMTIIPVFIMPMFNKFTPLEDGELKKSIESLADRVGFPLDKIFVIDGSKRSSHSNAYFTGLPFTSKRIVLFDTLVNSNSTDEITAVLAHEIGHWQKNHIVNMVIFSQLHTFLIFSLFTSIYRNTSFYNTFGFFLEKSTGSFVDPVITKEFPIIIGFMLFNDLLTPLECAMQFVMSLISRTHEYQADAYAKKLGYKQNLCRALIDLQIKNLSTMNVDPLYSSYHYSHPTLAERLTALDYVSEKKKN

Turning to `COc1cc2c(cc1OC)-c1cc(OCc3cccnc3)nc(=O)n1CC2`, the EC50 in assay [1] and in [2] was > 59.6 µM (inactive) each time.

`CCCC(=O)Nc1cccc(NC(=O)Cc2ccc(Cl)cc2)c1`: in assay [3], the EC50 (commonly the concentration needed to bring the measured effect to its halfway point) is 500 µM (inactive).

For the molecule `Oc1ccc(/C=N/Nc2ncc(Br)cn2)c(O)c1`, the EC50 was 41.1 µM (active) in [4], > 350 µM (not active) in [5] and 18.6 µM (active) in assay [7]. Moreover, the concentration at half-maximal activity (AC50) (in general, the concentration giving half of the maximal activity seen) in assay [6] was 4.55 µM (active); in [9], > 60 µM (inactive); in [10], 829 nM (active); in assay [11], 1.54 µM (active). Besides, the concentration for half-maximal inhibition (IC50) – broadly, the concentration that inhibits the measured activity by half – in [8] is 1.68 µM (active).

With `Cc1ccnc(N2CCN(C(=O)c3ccc(Cl)cc3)CC2)c1`, the AC50 in [12] is 87.3 nM (active).

`COc1ccc2c(c1)cc(C(=O)N[C@@H](CCSC)C(=O)N1CCC(C(=O)O)CC1)n2C`: the half-maximal activity concentration (AC50) was 27.2 µM (active) in [13], 8.08 µM (active) in assay [14] and 22.2 µM (active) in assay [15].

Consider `COc1cc(NC(=O)NCC2CCN(Cc3ccccc3Cl)CC2)cc(OC)c1OC`, for which the EC50 is 33.9 µM (active) in assay [16], 61.3 µM (active) in assay [17], 46.9 µM (active) in [18] and 63.1 µM (active) in assay [19].

As for `Cc1cc(C)c2c(=O)c(/C=C3\NC(=S)NC3=O)coc2c1`, the half-inhibitory concentration (IC50) in assay [20] was 18.6 µM (active); in assay [21], > 50 µM (inactive). For the same molecule, the concentration giving a half-maximal response (EC50) in assay [22] was 7.82 µM (active).
